Experimental data: paper PMC11999280, “Design and screening of novel endosomal escape compounds that enhance functional delivery of oligonucleotides in vitro” (Molecular Therapy. Nucleic Acids, 2025)

Columns and labels:
Type in all cases: cell-based
[1] = test system: mCherry-GAL9 expressing 16HBE cells; test: GAL9 recruitment assay, 16HBE; conditions: calculated mean from >3 independent exp.
Protocol: (§1) Experiments assessing GAL9 localization as an indicator for endosomal remodeling were performed as previously described[15] using 8× stablemCherry-GAL9 expressing cell lines, SHSY5Y, U2OS, 16HBE, NCI-H358, HuH7, HepG2, HEK293, and HeLa. For mCherry-GAL9 recruitment, 3,000 or 6,500 cells/well (depending upon cell line) were seeded into 384-well CellCarrier Ultra plates 24 h prior to treatment (PerkinElmer, catalog no. 6007558). An Echo 655T acoustic dispenser (Labcyte) was used for EEE dose-response preparation by transferring to the cell plate. At assay endpoints, cells were PBS washed, 4% paraformaldehyde fixed at room temperature […] (VWR, catalog no. 9713.1000), and nuclei stained with PBS +1 μg/mL Hoechst 33342 (Thermo Fisher Scientific, catalog no. H21492).
(§2) Imaging was performed using a spinning-disk confocal microscope (Yokogawa: CV8000) with a ×20w objective (numerical aperture 1.0). Cells and mCherry-GAL9 structure identification and quantification were done using Columbus image-analysis software (PerkinElmer version 2.9.0). Data processing was done using Spotfire (Tibco version 11.4) and Prism (GraphPad version 9.1.0). Image panels were assembled using the FigureJ plugin for FIJI.[43] All mCherry-GAL9 experiments were performed three times (N = 3) with duplicated wells per treatment (n = 2).

[2] = test system: mCherry-GAL9 expressing HEK293 cells; test: GAL9 recruitment assay, HEK293; conditions: calculated mean from >3 independent exp.
Protocol: as §1, §2

[3] = test system: mCherry-GAL9 expressing HeLa cells; test: GAL9 recruitment assay, HeLa; conditions: calculated mean from >3 independent exp.
Protocol: as §1, §2

[4] = test system: mCherry-GAL9 expressing HepG2 cells; test: GAL9 recruitment assay, HepG2; conditions: calculated mean from >3 independent exp.
Protocol: as §1, §2

[5] = test system: mCherry-GAL9 expressing HuH7 cells; test: GAL9 recruitment assay, HuH7; conditions: calculated mean from >3 independent exp.
Protocol: as §1, §2

[6] = test system: mCherry-GAL9 expressing NCI-H358 cells; test: GAL9 recruitment assay, NCI-H358; conditions: calculated mean from >3 independent exp.
Protocol: as §1, §2

[7] = test system: mCherry-GAL9 expressing SHSY5Y cells; test: GAL9 recruitment assay, SHSY5Y; conditions: calculated mean from >3 independent exp.
Protocol: as §1, §2

[8] = test system: mCherry-GAL9 expressing U2OS cells; test: GAL9 recruitment assay, U2OS; conditions: calculated mean from >3 independent exp.
Protocol: as §1, §2

[9] = test system: HeLa_Luc705 cells (pLuc/705 splice-switching reporter); test: Functional 705-SSO delivery, luciferase splice-switching assay; conditions: HeLa-Luc705 + 2 µM SSO; EEE 2.5 - 3 µM; mean from >3 independent experiments
Source text: Therefore, next, we functionally screened the SSO delivery in the HeLa_Luc705 reporter cell line. HeLa_Luc705 carries a pLuc/705 splice-switching reporter luciferase gene interrupted by a mutated β-globin intron, which creates a preferentially used cryptic 5′ splice site leading to aberrant splicing. Functional SSO delivery masks the cryptic site, redirecting the splicing machinery to the right splicing site, allowing the measurement of luciferase expression (Figure S1).[25]^,[26]^,[27]^,[28] We used SSO transfection with LF2000 as transfection control and the previously published endosomal escape enhancer CMP05 (here, EEE2) as positive control.[15]
For the assessment of functional SSO therapeutics, a HeLa_Luc705 cell line was grown in DMEM media supplemented with 10% fetal bovine serum (FBS). For most treatments, 10,000 cells/well were seeded in a 96-well plate, 24 h pre-incubated with 1- to 2-μM oligonucleotide, and then treated at the described EEE concentration. At 24 h post-treatment, cells were PBS rinsed and collected for further analysis (treatments and incubation times changed accordingly to the experiment design). Luciferase readout was performed as previously described,[15] using a GloMax 96-well plate microplate luminometer (Promega) immediately after adding 30 μL auto-injected luciferin substrate (Promega Firefly Luciferase Assay System; Thermo Scientific, catalog no. 16174) in a white-walled 96-well plate containing 30 μL 0.1% Triton X-100 (Sigma-Aldrich) cell lysed. Photon exposure time and delay were set to 10 and 2 s after injection. LF2000 was used as the transfection reagent control (Thermo Scientific, catalog no. 11668019). For EEE experiments using 1 or 2 μM SSOs, the control was prepared using lipofection with 100–200 nM SSO; this is to avoid complex induced cell toxicity.
705-SSO was purchased from and synthesized by Integrated DNA Technologies. The 705-SSO sequence was previously published, containing 2′-O-methylated bases and only phosphorothioate-saturated backbone linkages were included.[15] The 705-SSO was high-performance liquid chromatography purified, shipped, and stored in IDTE buffer (10 mM Tris, 0.1 mM EDTA).

COc1nn(C2CCN(C(C)C)CC2)cc1Nc1ncc(F)c(-n2ccc3c(C#N)cccc32)n1 [EEE9]
Gal9 response compared to reference ([1]; EEE 0.31 µM): 0.010 | Gal9 response compared to reference ([1]; EEE 0.62 µM): 0.013 | Gal9 response compared to reference ([1]; EEE 1.25 µM): 0.042 | Gal9 response compared to reference ([1]; EEE 2.5 µM): 0.209 | Gal9 response compared to reference ([1]; EEE 5 µM): 0.533 | Gal9 response compared to reference ([1]; EEE 10 µM): 0.691 | Gal9 response compared to reference ([2]; EEE 0.31 µM): 0.028 | Gal9 response compared to reference ([2]; EEE 0.62 µM): 0.032 | Gal9 response compared to reference ([2]; EEE 1.25 µM): 0.071 | Gal9 response compared to reference ([2]; EEE 2.5 µM): 0.396 | Gal9 response compared to reference ([2]; EEE 5 µM): 0.712 | Gal9 response compared to reference ([2]; EEE 10 µM): 0.639 | Gal9 response compared to reference ([3]; EEE 0.31 µM): 0.005 | Gal9 response compared to reference ([3]; EEE 0.62 µM): 0.005 | Gal9 response compared to reference ([3]; EEE 1.25 µM): 0.007 | Gal9 response compared to reference ([3]; EEE 2.5 µM): 0.110 | Gal9 response compared to reference ([3]; EEE 5 µM): 0.393 | Gal9 response compared to reference ([3]; EEE 10 µM): 0.495 | Gal9 response compared to reference ([4]; EEE 0.31 µM): 0.009 | Gal9 response compared to reference ([4]; EEE 0.62 µM): 0.009 | Gal9 response compared to reference ([4]; EEE 1.25 µM): 0.007 | Gal9 response compared to reference ([4]; EEE 2.5 µM): 0.011 | Gal9 response compared to reference ([4]; EEE 5 µM): 0.060 | Gal9 response compared to reference ([4]; EEE 10 µM): 0.564 | Gal9 response compared to reference ([5]; EEE 0.31 µM): 0.012 | Gal9 response compared to reference ([5]; EEE 0.62 µM): 0.009 | Gal9 response compared to reference ([5]; EEE 1.25 µM): 0.019 | Gal9 response compared to reference ([5]; EEE 2.5 µM): 0.083 | Gal9 response compared to reference ([5]; EEE 5 µM): 0.220 | Gal9 response compared to reference ([5]; EEE 10 µM): 0.366 | Gal9 response compared to reference ([6]; EEE 0.31 µM): 0.018 | Gal9 response compared to reference ([6]; EEE 0.62 µM): 0.020 | Gal9 response compared to reference ([6]; EEE 1.25 µM): 0.031 | Gal9 response compared to reference ([6]; EEE 2.5 µM): 0.212 | Gal9 response compared to reference ([6]; EEE 5 µM): 0.569 | Gal9 response compared to reference ([6]; EEE 10 µM): 0.627 | Gal9 response compared to reference ([7]; EEE 0.31 µM): 0.013 | Gal9 response compared to reference ([7]; EEE 0.62 µM): 0.016 | Gal9 response compared to reference ([7]; EEE 1.25 µM): 0.117 | Gal9 response compared to reference ([7]; EEE 2.5 µM): 0.756 | Gal9 response compared to reference ([7]; EEE 5 µM): 0.780 | Gal9 response compared to reference ([7]; EEE 10 µM): 0.696 | Gal9 response compared to reference ([8]; EEE 0.31 µM): 0.012 | Gal9 response compared to reference ([8]; EEE 0.62 µM): 0.013 | Gal9 response compared to reference ([8]; EEE 1.25 µM): 0.018 | Gal9 response compared to reference ([8]; EEE 2.5 µM): 0.055 | Gal9 response compared to reference ([8]; EEE 5 µM): 0.254 | Gal9 response compared to reference ([8]; EEE 10 µM): 0.502 | Luciferase expression compared to reference [9]: 0.692
